How the values were obtained:
IRAK4 = IRAK4 (Homo sapiens (Human), UniProt Q9NWZ3); assay: IRAK4 Inhibition Assay; format: biochemical; settings: ATP 500 μM; IRAK4 0.6 nM; 60 min at room temperature
Experimental: The assays were performed in U-bottom 384-well plates. The final assay volume was 30 μL prepared from 15 μL additions of enzyme and substrates (fluoresceinated peptide and ATP) and test compounds in assay buffer (20 mM HEPES pH 7.2, 10 mM MgCl2, 0.015% Brij 35 and 4 mM DTT). The reaction was initiated by the combination of IRAK4 with substrates and test compounds. The reaction mixture was incubated at room temperature for 60 min. and terminated by adding 45 μL of 35 mM EDTA to each sample. The reaction mixture was analyzed on the Caliper LABCHIP® 3000 (Caliper, Hopkinton, MA) by electrophoretic separation of the fluorescent substrate and phosphorylated product. Inhibition data were calculated by comparison to no enzyme control reactions for 100% inhibition and vehicle-only reactions for 0% inhibition. The final concentrations of reagents in the assays are ATP, 500 μM; FL-IPTSPITTTYFFFKKK peptide 1.5 μM; IRAK4, 0.6 nM; and DMSO, 1.6%.

[1] = system: IL-6 levels in human whole blood stimulated with a TLR2 agonist (lipoteichoic acid); assay: IRAK4 Whole Blood Assay; format: cell-based; settings: 10 μg/mL lipoteichoic acid for 5 hours, IL-6 readout
Experimental: Human whole blood containing the anti-coagulant ACD-A was plated in 384-well plate (25 μL/well) and incubated with compounds for 60 minutes at 37° C. in a 5% CO2 incubator. The blood was stimulated with a TLR2 agonist, 10 μg/mL final concentration of lipoteichoic acid (Invivogen, San Diego, CA) in 25 μL RPMI (Gibco) for 5 hours in a 5% CO2 incubator. At the end of the incubation, plates were centrifuged at 2300 rpm for 5 minutes. Supernatants were harvested and analyzed for IL-6 levels by Flow Cytometry beads assay (BD Biosciences, San Jose, CA).

IRAK4, sequence (Q9NWZ3 whole entry, species assumed): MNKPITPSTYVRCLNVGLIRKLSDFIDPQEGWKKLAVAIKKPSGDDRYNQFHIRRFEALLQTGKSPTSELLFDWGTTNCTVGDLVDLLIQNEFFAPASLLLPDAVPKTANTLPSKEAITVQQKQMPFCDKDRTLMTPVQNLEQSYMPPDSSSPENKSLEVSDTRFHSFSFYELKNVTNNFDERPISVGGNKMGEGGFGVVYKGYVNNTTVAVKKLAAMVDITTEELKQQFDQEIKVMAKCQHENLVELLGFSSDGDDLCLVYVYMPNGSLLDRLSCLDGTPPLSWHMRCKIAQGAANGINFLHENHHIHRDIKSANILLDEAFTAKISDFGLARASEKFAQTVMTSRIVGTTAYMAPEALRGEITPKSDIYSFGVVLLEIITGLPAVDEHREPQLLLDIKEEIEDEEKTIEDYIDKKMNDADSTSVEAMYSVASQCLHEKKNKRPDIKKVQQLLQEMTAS

| SMILES | IC50 (IRAK4) [nM] | EC50 [1] [nM] |
| --- | --- | --- |
| CC(C)Nc1c(C(=O)NC[C@@H](F)C(C)(C)O)cnc2sc(-c3ccnnc3)cc12 [Example 32, (R)-N-(2-fluoro-3-hydroxy-3-methylbutyl)-4-(isopropylamino)-2-(pyridazin-4-yl)thieno[2,3-b]pyridine-5-carboxamide] | 10.3 | > 20000 |
| CC(C)Nc1c(C(=O)N[C@H]2CC[C@H](N)CC2)cnc2sc(-c3cncs3)cc12 [Example 38, N-((1r,4r)-4-aminocyclohexyl)-4-(isopropylamino)-2-(thiazol-5-yl)thieno[2,3-b]pyridine-5-carboxamide] | 12.3 | 5040 |
| CC(C)Nc1c(C(=O)NCc2ncn[nH]2)cnc2sc(-c3cncs3)cc12 [Example 42, N-((1H-1,2,4-triazol-5-yl)methyl)-4-(isopropylamino)-2-(thiazol-5-yl)thieno[2,3-b]pyridine-5-carboxamide] | 12.2 | > 20000 |
| CCOCCNC(=O)c1cnc2sc(-c3cncs3)cc2c1NC(C)C [Example 43, N-(2-ethoxyethyl)-4-(isopropylamino)-2-(thiazol-5-yl)thieno[2,3-b]pyridine-5-carboxamide] | 17.1 | > 20000 |
| CC(C)Nc1c(C(=O)NCCC(C)(C)O)cnc2sc(-c3cncs3)cc12 [Example 44, N-(3-hydroxy-3-methylbutyl)-4-(isopropylamino)-2-(thiazol-5-yl)thieno[2,3-b]pyridine-5-carboxamide] | 8.2 | 660 |
| COC(=O)N[C@H]1CC[C@H](NC(=O)c2cnc3sc(-c4cncs4)cc3c2NC(C)C)CC1 [Example 50, methyl ((1r,4r)-4-(4-(isopropylamino)-2-(thiazol-5-yl)thieno[2,3-b]pyridine-5-carboxamido)cyclohexyl)carbamate] | 9.3 | 5310 |
| CC(C)(O)[C@H](F)CNC(=O)c1cnc2sc(-c3cncs3)cc2c1NC1COC1 [Example 53, (R)-N-(2-fluoro-3-hydroxy-3-methylbutyl)-4-(oxetan-3-ylamino)-2-(thiazol-5-yl)thieno[2,3-b]pyridine-5-carboxamide] | 15.1 | 3650 |
| CC(C)Nc1c(C(=O)NC[C@@H](F)C(C)(C)O)cnc2sc(-c3cnc(N)s3)cc12 [Example 56, (R)-2-(2-aminothiazol-5-yl)-N-(2-fluoro-3-hydroxy-3-methylbutyl)-4-(isopropylamino)thieno[2,3-b]pyridine-5-carboxamide] | 6 | > 10000 |
| Cc1ncc(-c2cc3c(NC(C)C)c(C(=O)NC[C@@H](F)C(C)(C)O)cnc3s2)s1 [Example 57, (R)-N-(2-fluoro-3-hydroxy-3-methylbutyl)-4-(isopropylamino)-2-(2-methylthiazol-5-yl)thieno[2,3-b]pyridine-5-carboxamide] | 8.2 | 3540 |
| CC(C)Nc1c(C(=O)NC[C@@H](F)C(C)(C)O)cnc2sc(-c3ccc(=O)[nH]c3)cc12 [Example 59, (R)-N-(2-fluoro-3-hydroxy-3-methylbutyl)-4-(isopropylamino)-2-(6-oxo-1,6-dihydropyridin-3-yl)thieno[2,3-b]pyridine-5-carboxamide] | 3.8 | 190 |
| CC(O)CCNC(=O)c1cnc2sc(-c3cncs3)cc2c1NC(C)C (stereo not drawn) [Example 60, N-(3-hydroxybutyl)-4-(isopropylamino)-2-(thiazol-5-yl)thieno[2,3-b]pyridine-5-carboxamide] | 10.8 | > 10000 |
| CC(C)Nc1c(C(=O)NCCC2(O)CC(F)(F)C2)cnc2sc(-c3cncs3)cc12 [Example 63, N-(2-(3,3-difluoro-1-hydroxycyclobutyl)ethyl)-4-(isopropylamino)-2-(thiazol-5-yl)thieno[2,3-b]pyridine-5-carboxamide] | 5.4 | 2340 |
| CC(C)Nc1c(C(=O)NCCN2CCS(=O)(=O)CC2)cnc2sc(-c3cncs3)cc12 [Example 68, N-(2-(1,1-dioxidothiomorpholino)ethyl)-4-(isopropylamino)-2-(thiazol-5-yl)thieno[2,3-b]pyridine-5-carboxamide] | 10.9 | > 20000 |
| CC(C)Nc1c(C(=O)NCCc2ccncc2)cnc2sc(-c3ccc(=O)[nH]c3)cc12 [Example 71, 4-(isopropylamino)-2-(6-oxo-1,6-dihydropyridin-3-yl)-N-(2-(pyridin-4-yl)ethyl)thieno[2,3-b]pyridine-5-carboxamide] | 5.2 | > 20000 |
| CC(C)Nc1c(C(=O)NCCc2cccnc2)cnc2sc(-c3ccc(=O)[nH]c3)cc12 [Example 72, 4-(isopropylamino)-2-(6-oxo-1,6-dihydropyridin-3-yl)-N-(2-(pyridin-3-yl)ethyl)thieno[2,3-b]pyridine-5-carboxamide] | 6.7 | > 20000 |
| CC(C)Nc1c(-c2cn(CC3CC3)nn2)cnc2sc(-c3cncs3)cc12 [Example 78, 5-(1-(cyclopropylmethyl)-1H-1,2,3-triazol-4-yl)-N-isopropyl-2-(thiazol-5-yl)thieno[2,3-b]pyridin-4-amine] | 8.8 | > 20000 |
| CC(C)Nc1c(-c2cn(CCCO)nn2)cnc2sc(-c3cncs3)cc12 [Example 79, 3-(4-(4-(isopropylamino)-2-(thiazol-5-yl)thieno[2,3-b]pyridin-5-yl)-1H-1,2,3-triazol-1-yl)propan-1-ol] | 2.3 | > 10000 |
| CC(C)Nc1c(-c2cn(CCCO)nn2)cnc2sc(-c3ccc(=O)[nH]c3)cc12 [Example 80, 5-(5-(1-(3-hydroxypropyl)-1H-1,2,3-triazol-4-yl)-4-(isopropylamino)thieno[2,3-b]pyridin-2-yl) pyridin-2(1H)-one] | 5.2 | 420 |
